Data reported in US7732460B2 (priority 2005, dated 2010).

Test system: panel of Gram-positive organisms (Staphylococcus aureus, Streptococcus pneumoniae, Streptococcus pyogenes, Enterococcus faecalis, Enterococcus faecium) and …
Assay type: cell-based, Gram-positive and Gram-negative bacteria
Conditions: against all of the strains representing the organisms listed; serial two-fold dilutions 0.016 to 16 mcg/mL

COc1cnc2ccc(=O)n3c2c1[C@](O)(CN1CCC(NCc2cc4c(nn2)OCCO4)CC1)C3 [Example 66]
MIC values: > 16 µg/mL
